Measurements reported in patent publication US20020065227A1, “Charged compounds comprising a nucleic acid binding moiety and uses therefor” (priority 2000, published 2002).
Converted amounts (≈) assume the structure as drawn. “And” between values parts separate entries of the source, which are not always exact repeats. Equal entries are not always repeated.

Legend:
AGTACT = experiment: DNase I footprint titration, AGTACT site; type: binding; conditions: equilibrium association constant Ka; pH 7.0, 22° C.
[1] = tested on: Staphylococcus epidermidis (12228)
Bacillus cereus (11778) [2] = experiment: MBC according to NCCLS guideline; type: cell-based
[3] = tested on: Staphylococcus aureus (29213); experiment: MIC, NCCLS broth microdilution; type: cell-based; conditions: Staphylococcus aureus (29213)
[4] = tested on: Trichophyto tonsurans (28942); experiment: MIC, antifungal assay; type: cell-based
[5] = tested on: Corynebacterium Group A (49676); experiment: MIC, NCCLS broth microdilution; type: cell-based; conditions: Corynebacterium Group A (49676)
all species tested = experiment: Microbicidal activity (MIC versus MBC), all species tested; type: cell-based; conditions: in words; from difference between MICs and MBCs
From the text: The minimal bactericidal concentration (MBC) has been determined for some of these designed compounds according to NCCLS guideline (Lorian, V. 1996 Antibiotics in laboratory medicine (The Williams & Wilkins Co., Baltimore, Md.)). The difference between the MICs and the MBCs has been established as an index of the bactericidal activity of an antibiotic.

Bacillus anthracis = type: cell-based
[6] = tested on: Streptococcus pneumoniae (51422) (multiple drug resistant); experiment: MIC, NCCLS broth microdilution; type: cell-based
Bacillus cereus (11778) [7] = experiment: MIC, NCCLS broth microdilution; type: cell-based; conditions: Bacillus cereus (11778)
[8] = tested on: Haemophilus influenzae (49247); experiment: MIC, NCCLS broth microdilution; type: cell-based; conditions: Haemophilus influenzae (49247)
[9] = tested on: Streptococcus pyogenes (49339)
[10] = tested on: Propionibacterium acnes (33179)
[11] = tested on: Saccharomyces cerevisiae (44773); experiment: MBC according to NCCLS guideline; type: cell-based
[12] = tested on: Listeria monocytogenes (19115); experiment: MIC, NCCLS broth microdilution; type: cell-based
AATACT = experiment: DNase I footprint titration, AATACT site; type: binding; conditions: equilibrium association constant Ka; pH 7.0, 22° C.
[13] = tested on: different species of bacteria and fungi; conditions: exception: Gram-negative bacteria such as Escherichia and Pseudomonas
[14] = tested on: Staphylococcus aureus (33591) (methicillin resistant)
ACTACT = experiment: DNase I footprint titration, ACTACT site; type: binding; conditions: equilibrium association constant Ka; pH 7.0, 22° C.
[15] = tested on: Enterococcus faecalis (29212); experiment: MIC, NCCLS broth microdilution; type: cell-based; conditions: Enterococcus faecalis (29212)
[16] = tested on: Staphylococcus aureus (29213); experiment: MBC according to NCCLS guideline; type: cell-based
[17] = tested on: Clostridium perfringens (13124); experiment: microbe, parasite or virus in culture; type: cell-based; conditions: Clostridium perfringens (13124), anaerobe
[18] = tested on: Enterococcus faecalis (29212); experiment: MBC according to NCCLS guideline; type: cell-based
[19] = tested on: Staphylococcus aureus (33591) (methicillin resistant); experiment: MIC, NCCLS broth microdilution; type: cell-based; conditions: Staphylococcus aureus (33591), methicillin resistant (MRSA)
[20] = tested on: Aspergillus niger (10535); experiment: MIC, antifungal assay; type: cell-based
[21] = tested on: Paecilomyces variotii (22319); experiment: MIC, antifungal assay; type: cell-based
Bacillus subtilis (6633) [22] = tested on: Bacillus subtilis (6633)
[23] = tested on: Saccharomyces cerevisiae (44773); experiment: MIC, antifungal assay; type: cell-based
[24] = tested on: Pseudomona aeruginosa (27853); experiment: MIC, NCCLS broth microdilution; type: cell-based; conditions: Pseudomona aeruginosa (27853)
[25] = tested on: Streptococcus pyogenes (49339); experiment: MIC, NCCLS broth microdilution; type: cell-based; conditions: Streptococcus pyogenes (49339); Table Ia: Streptococcus Group A(49339)
ATTACT = experiment: DNase I footprint titration, ATTACT site; type: binding; conditions: equilibrium association constant Ka; pH 7.0, 22° C.
Candida albicans (90028) [26] = experiment: MBC according to NCCLS guideline; type: cell-based
[27] = tested on: Enterococcus faecium (51559) (vacomycin resistant); conditions: vancomycin resistant
Bacillus subtilis (6633) [28] = experiment: MIC, NCCLS broth microdilution; type: cell-based; conditions: Bacillus subtilis (6633)
[29] = tested on: Candida albicans (38247) (Polyene resistant); experiment: MIC, antifungal assay; type: cell-based
[30] = tested on: Corynebacterium Group A (49676)
[31] = tested on: Staphylococcus epidermidis (12228); experiment: MIC, NCCLS broth microdilution; type: cell-based; conditions: Staphylococcus epidermidis (12228)
[32] = tested on: Clostridium perfringens (13124)
[33] = tested on: Peptostreptococcus asaccharolytics (29743); experiment: MIC, NCCLS broth microdilution; type: cell-based; conditions: anaerobe
[34] = tested on: Streptococcus pneumoniae (49619); experiment: MBC according to NCCLS guideline; type: cell-based
[35] = tested on: Peptostreptococcus asaccharolytics (29743)
Esherichia coli (25922) = experiment: MIC, NCCLS broth microdilution; type: cell-based, Escherichia coli; conditions: Escherichia coli (25922)
Fusarium solani (36031) = experiment: MIC, antifungal assay; type: cell-based
[36] = tested on: Propionibacterium acnes (33179); experiment: MIC, NCCLS broth microdilution; type: cell-based; conditions: anaerobe
[37] = tested on: Streptococcus pneumoniae (49619); experiment: MIC, NCCLS broth microdilution; type: cell-based; conditions: Streptococcus pneumoniae (49619)
Candida albicans (90028) [38] = experiment: MIC, antifungal assay; type: cell-based
[39] = tested on: Enterococcus faecium (51559) (vacomycin resistant); experiment: MIC, NCCLS broth microdilution; type: cell-based; conditions: Enterococcus faecium (51559), vancomycin resistant

`CN(C)CCCNC(=O)c1cc(NC(=O)c2cc(NC(=O)c3cc(NC(=O)c4nsc(NCCCCN)c4Cl)cn3C)cn2C)cn1C` [V-a] was tested, and the “Binding Constant, sequence AGTACT” value (AGTACT) was 3e+09 M⁻¹, the MBC [1] was 1 µg/mL (≈ 1.43 µM) and the MBC (Bacillus cereus (11778) [2]) was 0.5 µg/mL (≈ 0.714 µM). For the same compound, the MIC [3] was 2 µg/mL (≈ 2.86 µM), the MIC [4] was 16 µg/mL (≈ 22.8 µM) and the MIC [5] was 0.25 µg/mL and 0.25 to 0.5 µg/mL. For the same compound, the MBC (Micrococcus luteus (381)) was 0.5 µg/mL (≈ 0.714 µM), the Microbicidal activity (all species tested) was “microbicidal agents for all species tested” and the MIC (Bacillus anthracis) was 4 µg/mL (≈ 5.71 µM). The MIC [6] was 8 µg/mL (≈ 11.4 µM), the MIC (Bacillus cereus (11778) [7]) was 0.25 µg/mL (≈ 0.357 µM) and the MIC [8] was 32 µg/mL (≈ 45.7 µM). The MBC [9] was 0.125 µg/mL (≈ 0.179 µM), the MBC [10] was 8 µg/mL (≈ 11.4 µM) and the MBC [11] was 8 µg/mL (≈ 11.4 µM). For the same compound, the MIC [12] was 4 µg/mL (≈ 5.71 µM), the “Binding Constant, sequence AATACT” value (AATACT) was 1e+08 M⁻¹ and the “MIC for most species tested” value [13] was “less than 8 μg/mL”. For the same compound, the MBC [14] was 4 µg/mL (≈ 5.71 µM), the “Binding Constant, sequence ACTACT” value (ACTACT) was 1e+08 M⁻¹ and the MIC [15] was 1 µg/mL (≈ 1.43 µM). The MBC [16] was 2 µg/mL (≈ 2.86 µM), the MIC [17] was 1 µg/mL (≈ 1.43 µM) and the MBC [18] was greater than 4 µg/mL. It also gave an MIC [19] of 2 µg/mL (≈ 2.86 µM), an MIC [20] of 2 µg/mL (≈ 2.86 µM) and an MIC [21] of 0.5 µg/mL (≈ 0.714 µM). For the same compound, the MBC (Bacillus subtilis (6633) [22]) was 0.5 µg/mL (≈ 0.714 µM), the MIC [23] was 8 µg/mL (≈ 11.4 µM) and the MIC [24] was greater than 128 µg/mL. For the same compound, the MIC [25] was 0.125 µg/mL (≈ 0.179 µM), the “Binding Constant, sequence ATTACT” value (ATTACT) was 1e+08 M⁻¹ and the MBC (Candida albicans (90028) [26]) was 4 µg/mL (≈ 5.71 µM). For the same compound, the MBC [27] was 2 to 4 µg/mL, the MIC (Bacillus subtilis (6633) [28]) was 0.25 µg/mL and 0.25 to 0.5 µg/mL and the MIC [29] was 4 µg/mL (≈ 5.71 µM). The MBC [30] was 0.25 µg/mL (≈ 0.357 µM), the MIC [31] was 1 µg/mL (≈ 1.43 µM) and the MBC [32] was 2 µg/mL (≈ 2.86 µM). It also gave an MIC [33] of 0.125 µg/mL (≈ 0.179 µM), an MBC [34] of 0.5 µg/mL (≈ 0.714 µM) and an MBC [35] of 0.25 µg/mL (≈ 0.357 µM). For the same compound, the MIC (Esherichia coli (25922)) was greater than 128 µg/mL, the MIC (Fusarium solani (36031)) was 4 µg/mL (≈ 5.71 µM) and the MIC [36] was 2 µg/mL and 4 µg/mL. It also gave an MIC [37] of 0.5 µg/mL (≈ 0.714 µM), an MIC (Candida albicans (90028) [38]) of 4 µg/mL (≈ 5.71 µM) and an MIC [39] of 1 µg/mL (≈ 1.43 µM).
